The subject of series [1] is MiaPaCa-2 cells. Nature of the series: Caspase (CPP32) activity assay as marker for apoptosis. It counts as cell-based, human. How it is done:
(§1) Cells from culture plates at 18, 44, 66 and 90 h time points were lysed in situ in cell lysis buffer [1% Triton X-100 in 0.05 M Tris-HCl (pH 8.0), […], 0.02% Na azide, 0.1 mg/ml phenylmethylsulfonylfluoride (PMSF), and 0.001 mg/ml Aprotinin]. Lysates were subjected to 10% SDS-PAGE followed by electrotransfer to nitrocellulose and immunoblotting with antibodies to GFP and p53 (Santa Cruz Biotechnology, Santa Cruz, Calif.). Antibody-labeled proteins were identified by chemiluminescence using ECL methodology (Amersham)(1). Assays for elevated caspase expression were performed using the Clontech (Palo Alto, Calif.) for caspase (CPP32) activity (2). As a positive control for the caspase activity assay, Mia-PaCa-2 cells were incubated with tumor necrosis factor (TNF) (Sigma, St. Louis, Mo.) at a concentration of 10 ng/ml for 24 h. In addition, to detect if significant cell necrosis occurred, the CytoTox96 assay was used (Promega, Madison, Wis.) for LDH released into the cell culture medium as performed on several breast cancer cell lines (2).

The next series concerns cancer cells. Conditions: previous studies (1-3), also in cancer cells in which p53 protein was absent; cited from earlier work.
Series [2] deals with MiaPaCa-2 cells. Nature of the series: Incubation of MiaPaCa-2 cells with peptides; cell counts by trypan blue exclusion, MTT. It counts as cell-based, human. How it is done:
Duplicate sets of 6×10^6 MiaPaCa-2 cells were incubated with different concentrations of PNC-28, i.e., 5, 10, 20, 40, 80 and 160 μmol/ml. […] All incubations were carried out using a protocol identical to that described in ref. 1 (1). After the cells had been allowed to adhere to the tissue culture dish (TCD) for 24 hours the medium was removed from each TCD, and new medium containing the same or no peptide concentration was added. Medium from each TCD was removed every 24 h, and fresh medium with its respective peptide at the appropriate concentration was added. Cells were inspected daily for changes in cell growth, morphology, and viability. At the end of each day over a five-day period, duplicate cell counts were performed for each incubation using the trypan blue exclusion method. In addition, cell viability was also determined by 3-[4,5-dimethylthiazol-2-yl]-2,5 diphenyl tetrazolium bromide (MTT) assay according to the manufacturers' instructions (Promega Corporation, Madison, Wis., USA).

In series [3] the test system is MiaPaCa-2 cells. Nature of the series: Immunoblotting of MiaPaCa-2 cell lysates for p53 and waf^p21, with caspase activity. It counts as cell-based, human. Conditions: at near 100 percent cell death: 96 hr transfected cells, 48 hr PNC-28 75 μmol/ml, FIG. 6. How it is done:
For protein analyses, and detection of apoptosis, 2×10^6 cells were seeded into 10 cm diameter TCDs and transfected with DNA: Lipofectamine 2000 proportionally adjusted to the increased area. When the cell density reached 90-100%, the cells of the experimental and sham-transfected group were detached using trypsin and plated into four new TCD's in which they were allowed to grow in complete medium. At defined time points cells were released from adherence with 10 mM EDTA in PBS and were lysed in lysing buffer [1% Triton X-100 in 0.05 M Tris-HCl (pH 8.0), […], 0.02% Na azide, 0.01 mg/ml phenylmethylsulfonylfluoride (PMSF), and 0.001 mg/ml Aprotinin]. Protein equivalents of 10^6 cells, i.e., ˜30 μg/lane, were then subjected to SDS-PAGE using 10% Tris-HCl gels and, in some experiments, 16% Tricine Peptide Gels (Biorad, Hercules, Calif.) to detect PNC-28 (−3104 Da) and p53 17-26 (−1500 Da). […] Semi-quantitation of immunoblotting results was performed by measuring luminosity of bands in a single scanned developed x-ray film, using the histogram option of Adobe Photoshop 5.5. […] Opacity of each band was calculated by the equation, Opacity=255-Luminosity-background (15). […]
(In general: A western blot detects proteins with antibodies after separation by electrophoresis.)

Series [4] deals with MiaPaCa-2 cells. Nature of the series: LDH release into cell culture medium (CytoTox96) as marker for necrosis. Type of series: cell-based, human. How it is done: as §1
On the technique in general: Release of lactate dehydrogenase indicates damage to the cell membrane.

Series [5] concerns MiaPaCa-2 cells. Nature of the series: Time-lapse electron microscopy of MiaPaCa-2 cells treated with PNC-28. Conditions: 25 μmol/ml, 15 min, FIG. 4B. It counts as cell-based, human. How it is done:
Time-lapse electron microscopy (EM) was used to examine the ultrastructural features of cell death. MiaPaCa-2 cells were grown for 24 h on Thermanox cover slips (Lux Scientific), and then treated with 25 μmol of PNC-28 for 1 and 15 min, along with a corresponding control group without peptide. The cells were washed with PBS solution and then fixed with 2.5% gluteraldehyde-PBS. The fixed cultures were rinsed in a 0.1 M phosphate buffer (pH 7.3), post fixed in 2% (0.08 m) osmium tetroxide-PBS (pH 7.3), dehydrated in a graded series of ethanol and propylene oxide and embedded in Epon 812. Sections were cut at 700 Å, stained with uranyl acetate and lead citrate and examined with a Jeol JEM 1010 Electron Microscope.

Where [6] appears, read: all doses over the 20-75 μmol/ml range, FIG. 4D.

“Also recorded” adds a separate entry of the source.

Take TNF-α [reference compound]: the “caspase 3 activity, positive control” value in the series with MiaPaCa-2 cells [1] (10 ng/ml, 24 h, FIG. 4C condition 1) is reported as “Maximal caspase release”.

As for “PPLSQETFSDLWKLLKKWKMRRNQFWVKVQRG (PNC-27)”, in the series with cancer cells, the “mode of tumor cell death” value is listed as “induced tumor cell necrosis, not apoptosis”.

Consider `CC[C@H](C)[C@H](NC(=O)[C@H](CCCNC(=N)N)NC(=O)[C@H](CCCCN)NC(=O)CNC(=O)[C@@H](NC(=O)[C@H](CO)NC(=O)[C@H](Cc1ccccc1)NC(=O)[C@@H]1CCCN1C(=O)[C@@H](N)CCSC)[C@@H](C)O)C(=O)N[C@@H](CCSC)C(=O)N[C@@H](CC(C)C)C(=O)NCC(=O)N[C@@H](CCC(=O)O)C(=O)N[C@@H](CCCCN)C(=O)N[C@@H](CCCCN)C(=O)N[C@@H](Cc1c[nH]c2ccccc12)C(=O)N[C@@H](CCCCN)C(=O)N[C@@H](CCSC)C(=O)N[C@@H](CCCNC(=N)N)C(=O)N[C@@H](CCCNC(=N)N)C(=O)N[C@@H](CC(N)=O)C(=O)N[C@@H](CCC(N)=O)C(=O)N[C@@H](Cc1ccccc1)C(=O)N[C@@H](Cc1c[nH]c2ccccc12)C(=O)N[C@H](C(=O)N[C@@H](CCCCN)C(=O)N[C@H](C(=O)N[C@@H](CCC(N)=O)C(=O)N[C@@H](CCCNC(=N)N)C(=O)NCC(=O)O)C(C)C)C(C)C` [PNC-29, reference compound], for which the “cytotoxicity, number of remaining cells versus untreated” value in the series on MiaPaCa-2 cells [2] (75 μmol/ml, 48 h, FIG. 3) is listed as “no effect on cell growth”.

Regarding ETFSDLWKLLKKWKMRRNQFWVKVQRG (PNC-28), the “levels of p53, waf^p21 and caspase activity” value in the series on MiaPaCa-2 cells [3] is given as “not observed”. Also, in the series on MiaPaCa-2 cells [2] (20 μmol/ml), the “time to cell death” value is on record as 1 week. In addition, the cell death result in the series on MiaPaCa-2 cells [2] (20 μmol/ml, 48 h, FIG. 2) is given as “roughly 35%”; in the series with MiaPaCa-2 cells [2] (80 μmol/ml, 48 h, FIG. 2), “over 80%”; with MiaPaCa-2 cells [2] (doses between 20 and 75 μmol/ml, time decreasing with dose), approximately 100%. In the series with MiaPaCa-2 cells [2] (40 μmol/ml), the “time to similar (near total) cell death” value amounted to 4 days. Also, in the series on MiaPaCa-2 cells [2] (75 μmol/ml, 24 h, FIG. 1B), the cell morphology result is “appear necrotic”. In addition, in the series with MiaPaCa-2 cells [2] (75 μmol/ml, 48 h), the “cell death as measured by trypan blue dye uptake” value is on record as approximately 100%. In addition, in the series with MiaPaCa-2 cells [2] (80 μmol/ml), the “time to near total cell death” value is recorded as 48 h. Moreover, in the series on cancer cells, the “mode of tumor cell death” value is recorded as “induced tumor cell necrosis, not apoptosis”. Moreover, the LDH activity result in the series on MiaPaCa-2 cells [4] (25 μmol/ml, 24 h, FIG. 4A) is “almost to the same extent as cells that were lysed with lysis buffer; also recorded: high levels of LDH”. The LDH result in the series with MiaPaCa-2 cells [4] (25 umol/ml, 24 h, FIG. 4D) is reported as “approximately 0.235 OD”; with MiaPaCa-2 cells [4] (50 umol/ml, 24 h, FIG. 4D) it was “approximately 0.44 OD”; in the series with MiaPaCa-2 cells [4] (75 umol/ml, 24 h, FIG. 4D) it was “approximately 0.35 OD”. In addition, the LDH release result with MiaPaCa-2 cells [4] (setting [6]) is reported as “early release of LDH”. Further, the “plasma membrane integrity in electron micrographs” value with MiaPaCa-2 cells [5] is on record as “exhibit lysis of their plasma membranes”. Further, the caspase level entry in the series on MiaPaCa-2 cells [1] (25 μmol/ml, 24 h, FIG. 4C) is given as “only baseline levels”; with MiaPaCa-2 cells [1] (setting [6]), “only background levels of caspase”. Besides, the caspase result was “approximately 0.03” with MiaPaCa-2 cells [1] (25 umol/ml, 24 h, FIG. 4D); “approximately 0.02” with MiaPaCa-2 cells [1] (50 umol/ml, 24 h, FIG. 4D); “approximately 0.015” in the series with MiaPaCa-2 cells [1] (75 umol/ml, 24 h, FIG. 4D).
